Results taken from patent US8637511B2, “Aminopyrimidines useful as kinase inhibitors” (Vertex Pharmaceuticals Incorporated, priority 2005, dated 2014).
Like-named read-outs stand apart in the source and are kept apart here.

What was measured:
human Itk kinase = target: T1, human Itk kinase (Homo sapiens, UniProt Q08881); experiment: Itk inhibition assay: radioactivity-based assay; assay type: biochemical; conditions: Ki(app)
T1 sequence (Q08881 1-620): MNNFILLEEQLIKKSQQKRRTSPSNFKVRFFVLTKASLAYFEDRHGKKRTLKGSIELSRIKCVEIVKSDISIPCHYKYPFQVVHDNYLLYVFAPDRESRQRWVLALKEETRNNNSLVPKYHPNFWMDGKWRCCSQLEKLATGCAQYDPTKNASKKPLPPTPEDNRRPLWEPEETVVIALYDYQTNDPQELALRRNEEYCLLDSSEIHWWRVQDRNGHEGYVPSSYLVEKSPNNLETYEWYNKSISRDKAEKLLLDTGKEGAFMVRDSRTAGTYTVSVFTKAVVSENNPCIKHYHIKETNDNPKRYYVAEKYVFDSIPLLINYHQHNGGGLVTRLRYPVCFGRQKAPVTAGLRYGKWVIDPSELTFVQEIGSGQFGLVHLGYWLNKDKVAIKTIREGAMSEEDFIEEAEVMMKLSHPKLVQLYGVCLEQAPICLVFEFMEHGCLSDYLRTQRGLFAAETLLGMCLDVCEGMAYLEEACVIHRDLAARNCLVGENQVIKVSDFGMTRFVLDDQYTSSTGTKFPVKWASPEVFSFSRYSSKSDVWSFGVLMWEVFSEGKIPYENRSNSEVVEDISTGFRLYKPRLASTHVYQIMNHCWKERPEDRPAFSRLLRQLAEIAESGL
Protocol: The compounds of the present invention were evaluated as inhibitors of human Itk kinase using a radioactivity-based assay. These compounds can also be evaluated using a spectrophotometric or alphascreen assay.
Assays were carried out in a mixture of 20 mM MOPS (pH 7.0), 10 mM MgCl2, 0.1% BSA and 1 mM DTT. Final substrate concentrations in the assay were 7.5 μM [γ-^33P]ATP (400 μCi ^33P ATP/μmol ATP, Amersham Pharmacia Biotech/Sigma Chemicals) and 3 μM peptide (SAM68 protein Δ332-443). Assays were carried out at 25° C. in the presence of 50 nM Itk. An assay stock buffer solution was prepared containing all of the reagents listed above, with the exception of ATP and the test compound of interest. 50 μL of the stock solution was placed in a 96 well plate followed by addition of 2 μL of DMSO stock containing serial dilutions of the test compound (typically starting from a final concentration of 50 μM with 2-fold serial dilutions) in duplicate (final DMSO concentration 2%). The plate was pre-incubated for 10 minutes at 25° C. and the reaction initiated by addition of 50 μL [γ-^33P]ATP (final concentration 7.5 μM).
The reaction was stopped after 10 minutes by the addition of 100 μL 0.2M phosphoric acid+0.01% TWEEN 20. A multiscreen phosphocellulose filter 96-well plate (Millipore, Cat no. MAPHNOB50) was pretreated with 100 μL 0.2M phosphoric acid+0.01% TWEEN 20 prior to the addition of 170 μL of the stopped assay mixture. The plate was washed with 4×200 μL 0.2M phosphoric acid+0.01% TWEEN 20. After drying, 30 μL Optiphase ‘SuperMix’ liquid scintillation cocktail (Perkin Elmer) was added to the well prior to scintillation counting (1450 Microbeta Liquid Scintillation Counter, Wallac).
Ki(app) data were calculated from non-linear regression analysis of the initial rate data using the Prism software package (GraphPad Prism version 3.0cx for Macintosh, GraphPad Software, San Diego Calif., USA).

FLT-3 = target: T2, FLT-3 (Homo sapiens, UniProt P36888); experiment: FLT-3 inhibition assay, radiometric filter-binding; assay type: biochemical
T2 sequence (P36888 27-993): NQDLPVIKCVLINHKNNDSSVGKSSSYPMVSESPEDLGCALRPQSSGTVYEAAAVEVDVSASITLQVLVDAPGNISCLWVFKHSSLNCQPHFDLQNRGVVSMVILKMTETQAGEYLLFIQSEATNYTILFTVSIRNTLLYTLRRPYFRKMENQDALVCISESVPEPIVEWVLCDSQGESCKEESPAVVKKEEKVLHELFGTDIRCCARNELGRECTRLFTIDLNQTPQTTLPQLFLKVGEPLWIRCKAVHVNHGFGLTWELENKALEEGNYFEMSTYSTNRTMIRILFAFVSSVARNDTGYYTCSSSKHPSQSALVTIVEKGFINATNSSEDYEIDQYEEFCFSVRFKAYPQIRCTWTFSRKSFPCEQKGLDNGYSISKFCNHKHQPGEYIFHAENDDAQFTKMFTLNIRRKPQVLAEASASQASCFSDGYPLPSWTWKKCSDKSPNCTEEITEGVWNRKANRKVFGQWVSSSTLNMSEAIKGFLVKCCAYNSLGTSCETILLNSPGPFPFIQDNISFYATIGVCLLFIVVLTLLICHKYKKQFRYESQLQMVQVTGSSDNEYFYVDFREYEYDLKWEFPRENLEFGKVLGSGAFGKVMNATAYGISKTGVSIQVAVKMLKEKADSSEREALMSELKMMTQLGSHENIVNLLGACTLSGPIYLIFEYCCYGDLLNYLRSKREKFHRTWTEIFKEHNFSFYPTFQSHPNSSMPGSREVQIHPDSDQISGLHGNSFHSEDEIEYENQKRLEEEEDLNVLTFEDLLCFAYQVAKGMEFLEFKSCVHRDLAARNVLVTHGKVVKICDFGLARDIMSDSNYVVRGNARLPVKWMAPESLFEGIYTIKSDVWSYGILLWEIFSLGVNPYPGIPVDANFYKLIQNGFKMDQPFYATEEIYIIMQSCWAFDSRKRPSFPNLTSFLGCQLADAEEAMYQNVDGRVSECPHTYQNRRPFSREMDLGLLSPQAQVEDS

Row | SMILES | Ki (human Itk kinase) [nM] | Ki (FLT-3) [nM] | Ki (FLT-3; read-out: FLT-3 Ki value) [nM]
1 | Cc1cnc(Nc2cc(N3CC(N(C)C)C3)nc(Sc3ccc(NC(=O)C4CC4)cc3)n2)s1 [Compound 1] | 100 to 1000 | 50 to 150 | 
2 | Cc1cnc(Nc2cc(N3CC(N)C3)nc(Sc3ccc(NC(=O)C4CC4)cc3)n2)s1 [Compound 2] | 100 to 1000 | ≤ 50 | 
3 | Cc1cnc(Nc2cc(N3CC(O)C3)nc(Sc3ccc(NC(=O)C4CC4)cc3)n2)s1 [Compound 3] | 100 to 1000 | ≤ 50 | 
4 | Cc1cnc(Nc2cc(N3CCC3)nc(Sc3ccc(NC(=O)C4CC4)cc3)n2)s1 [Compound 4] | 100 to 1000 | 50 to 150 | 
5 | CC1=NN=C(Nc2cc(N3CCC3)nc(Sc3ccc(NC(=O)c4ccccc4Cl)cc3)n2)C1 [Compound 5] | 100 to 1000 |  | 50 to 150
6 | CC1=NN=C(Nc2cc(N3CCC3)nc(Sc3ccc(NC(=O)C4CCCN4C)cc3)n2)C1 (centres unmarked) [Compound 6] | 100 to 1000 | 150 to 1000 | 
7 | Cc1cc(Nc2cc(N3CCC3)nc(Sc3ccc(NC(=O)c4c(F)cccc4N4CCC4)cc3)n2)n[nH]1 [Compound 8] | 100 to 1000 | 50 to 150 | 
8 | Cc1cc(Nc2cc(N3CCC3)nc(Sc3ccc(N(C)C(=O)c4ccccc4F)cc3)n2)n[nH]1 [Compound 10] | 1000 to 2000 | 50 to 150 | 
9 | COC1CN(c2cc(Nc3cc(C)[nH]n3)nc(Sc3ccc(NC(=O)c4ccccc4Cl)cc3)n2)C1 [Compound 12] | ≤ 100 | 50 to 150 | 
10 | CCC(=O)Nc1ccc(Sc2nc(Nc3cc(C)[nH]n3)cc(N3CCC3)n2)cc1 [Compound 14] | 100 to 1000 |  | 50 to 150
11 | CCC(=O)Nc1ccc(Sc2nc(Nc3cc(C)[nH]n3)cc(N3CC(O)C3)n2)cc1 [Compound 15] | 100 to 1000 | 50 to 150 | 
12 | Cc1cc(Nc2cc(N3CC(C#N)C3)nc(Sc3ccc(NC(=O)c4ccccc4Cl)cc3)n2)n[nH]1 [Compound 16] | ≤ 100 | 50 to 150 | 
13 | Cc1cc(Nc2cc(N3CCC3)nc(Sc3ccc(NC(=O)C4CC4)cc3)n2)n[nH]1 [Compound 17] | 100 to 1000 |  | 50 to 150
14 | CCNC(=O)c1ccc(Sc2nc(Nc3cc(C)[nH]n3)cc(N3CCC3)n2)cc1 [Compound 20] | 100 to 1000 | 50 to 150 | 
15 | Cc1cc(Nc2cc(N3CCC3)nc(Sc3ccc4ccccc4c3)n2)n[nH]1 [Compound 25] | 1000 to 2000 | ≤ 50 | 
16 | Cc1cc(Nc2cc(N3CCC3)nc(Sc3ccc(NC(=O)OC(C)(C)C)cc3)n2)n[nH]1 [Compound 26] | 1000 to 2000 | 50 to 150 | 
17 | Cc1ccc(S(=O)(=O)Nc2ccc(Sc3nc(Nc4cc(C)[nH]n4)cc(N4CCC4)n3)cc2)cc1 [Compound 27] | 1000 to 2000 | 50 to 150 | 
18 | Cc1ccc(C(=O)Nc2ccc(Sc3nc(Nc4cc(C)[nH]n4)cc(N4CCC4)n3)cc2)cc1 [Compound 28] | 100 to 1000 | 150 to 1000 | 
19 | Cc1cc(Nc2cc(N3CCC3)nc(Sc3ccc(NC(=O)C4CCCCC4)cc3)n2)n[nH]1 [Compound 30] | 100 to 1000 |  | 150 to 1000
20 | Cc1cc(Nc2cc(N3CCC3)nc(Sc3ccc(NC(=O)Cc4ccccc4)cc3)n2)n[nH]1 [Compound 35] | 100 to 1000 | 50 to 150 | 
21 | Cc1cc(Nc2cc(N3CC(C)C3)nc(Sc3ccc(NC(=O)c4ccccc4Cl)cc3)n2)n[nH]1 [Compound 39] | ≤ 100 | 50 to 150 | 

Row | SMILES | Ki (human Itk kinase) [nM] | Ki (FLT-3) [nM] | Ki (FLT-3; read-out: FLT-3 Ki value) [nM]
22 | Cc1cc(Nc2cc(N3CCC3)nc(Sc3ccc(NC(=O)CC(F)(F)F)cc3)n2)n[nH]1 [Compound 40] | 100 to 1000 | 50 to 150 | 
23 | Cc1cc(Nc2cc(N3CCC3)nc(Sc3ccc(NC(=O)c4ccc(F)cc4F)cc3)n2)n[nH]1 [Compound 44] | 100 to 1000 | 150 to 1000 | 
24 | Cc1cc(Nc2cc(N3CCC3)nc(Sc3cccc(NC(=O)c4ccccc4Cl)c3)n2)[nH]n1 [Compound 49] | 1000 to 2000 | 150 to 1000 | 
25 | CC1=NN=C(Nc2cc(N3CCC3)nc(Sc3ccc(NC(=O)c4ccccc4)cc3)n2)C1 [Compound 52] | 100 to 1000 |  | 150 to 1000
26 | Cc1cc(Nc2cc(N3CCC3)nc(Sc3ccc(NC(=O)c4ccc(Cl)cc4)cc3)n2)n[nH]1 [Compound 54] | 100 to 1000 | 150 to 1000 | 
27 | CC1=NN=C(Nc2cc(N3CCC3)nc(Sc3ccc(NC(=O)c4cccc(C(F)(F)F)c4F)cc3)n2)C1 [Compound 55] | 100 to 1000 | 150 to 1000 | 
28 | Cc1cc(Nc2cc(N3CCC3)nc(Sc3ccc(NC(=O)Cc4cccc(Cl)c4)cc3)n2)[nH]n1 [Compound 58] | 100 to 1000 |  | 150 to 1000
29 | Cc1cc(Nc2cc(N3CC(F)C3)nc(Sc3ccc(NC(=O)c4ccccc4Cl)cc3)n2)[nH]n1 [Compound 60] | ≤ 100 |  | 50 to 150
30 | CC1=NN=C(Nc2cc(N3CCC3)nc(Sc3ccc(NC(=O)c4cccc(Cl)c4F)cc3)n2)C1 [Compound 61] | ≤ 100 | 150 to 1000 | 
31 | Cc1cc(Nc2cc(N3CC(OC(C)(C)C)C3)nc(Sc3ccc(NC(=O)c4ccccc4Cl)cc3)n2)[nH]n1 [Compound 66] | 100 to 1000 | 150 to 1000 | 
32 | CCC(=O)Nc1ccc(Sc2nc(Nc3cc(C)n[nH]3)cc(N3CC(C)(O)C3)n2)cc1 [Compound 71] | 100 to 1000 |  | 50 to 150
33 | Cc1cc(Nc2cc(N3CC(N4CC[C@H](F)C4)C3)nc(Sc3ccc4ncccc4c3)n2)n[nH]1 [Compound 160] |  | ≤ 50 | 
34 | Cc1cc(Nc2cc(N3CC(F)(C4CC4)C3)nc(Sc3ccc(-c4ncc(C)o4)cc3)n2)[nH]n1 [Compound 175] |  | 150 to 1000 | 
35 | Cc1ccc2cc(Sc3nc(Nc4cc(C)[nH]n4)cc(N4CC(N5CCCC5)C4)n3)ccc2n1 [Compound 182] |  | 50 to 150 | 
36 | CC(=O)Nc1cccc(Sc2nc(Nc3cc(C)n[nH]3)cc(N3CC(F)(C4CC4)C3)n2)c1 [Compound 188] |  | 50 to 150 | 
37 | Cc1cc(Nc2cc(N3CC(F)(C4CC4)C3)nc(Sc3ccc4nc(C(F)(F)F)cn4c3)n2)[nH]n1 [Compound 190] |  | 150 to 1000 | 
38 | Cc1cc(Nc2cc(N3CC(N4CCOCC4)C3)nc(Sc3ccc(NC(=O)C4(C(F)(F)F)CC4)cc3)n2)[nH]n1 [Compound 191] |  |  | 150 to 1000
39 | Cc1ccc2cc(Sc3nc(Nc4cc(C)[nH]n4)cc(N4CC(C5CCC(F)C5)C4)n3)ccc2n1 (centres unmarked) [Compound 198] |  | 50 to 150 | 
40 | Cc1cc(Nc2cc(N3CC(N4CCOCC4)C3)nc(Sc3ccc(NC(=O)CC(F)(F)F)cc3)n2)[nH]n1 [Compound 199] |  | ≤ 50 | 
41 | Cc1cc(Nc2cc(N3CC(F)(C4CC4)C3)nc(Sc3ccc4nc(C(F)(F)F)[nH]c4c3)n2)[nH]n1 [Compound 202] |  | ≤ 50 | 
42 | Cc1cc(Nc2cc(N3CC(F)(C4CC4)C3)nc(Sc3ccc(N)cc3)n2)[nH]n1 [Compound 209] |  | ≤ 50 | 
